The results in this text go back to patent US10774064B2 (Cadent Therapeutics, Inc., priority 2016, dated 2020).

This assay has as its target T1, small-conductance Ca2+-activated K+ channels (SK channels, subtype 2) (Homo sapiens, UniProt Q9H2S1).
T1 construct: expressed in transfected cells; host or cells: HEK293
In words: whole-cell patch-clamp of ionic current through SK2 channels in HEK293 cells (SC100). As to conditions: whole-cell patch-clamp, HEK293 cells expressing SK2 channels; concentration that increases the basal current by 100%. The assay is classed as cell-based. In a few lines: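 SC100, the concentration doubling basal current (a 100% increase), was taken from SK2 currents recorded by whole-cell patch-clamp in SK2-expressing HEK293 cells.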

The structures appear in SMILES notation.

On to `Cc1ccn(-c2nc(NC3CCC(F)(F)CC3)nc(N3CCOCC3)n2)n1` [IN10984-079-P1, N-(4,4-difluorocyclohexyl)-4-(3-methyl-1H-pyrazol-1-yl)-6-morpholino-1,3,5-triazin-2-amine], for which the “SC100 (μM)” value is recorded as “+ (+ means >1 uM)”. The result for `Cc1cc(C)n(-c2nc(NC3CCC(F)(F)CC3)cc(C(O)c3ccccc3)n2)n1` (centres unmarked) [IN10987-030-P1] reads “+ (+ means >1 uM)”. On to `Cc1ccn(-c2nc(NC3CCC(F)(F)CC3)cc(C(O)c3ccccc3)n2)n1` (centres unmarked) [IN10987-039-P1], for which the “SC100 (μM)” value was “+ (+ means >1 uM)”. As to `Cc1csc(-c2nc(NC3CCC(F)(F)CC3)cc(N3C[C@@H]4C[C@H]3CN4)n2)n1` [IN10987-050-P1], the “SC100 (μM)” value was “+ (+ means >1 uM)”.

Regarding `Cc1cc(C)n(-c2nc(NC3CCC(F)(F)CC3)cc(C(C)N3CCOCC3)n2)n1` (centres unmarked) [IN10987-055-P1, N-(4,4-difluorocyclohexyl)-2-(3,5-dimethyl-1H-pyrazol-1-yl)-6-(1-morpholinoethyl)pyrimidin-4-amine], the “SC100 (μM)” value is reported as “+ (+ means >1 uM)”. The entry for `Cc1csc(-c2nc(NC3CCC(F)(F)CC3)cc(N3CC4CC3CN4C)n2)n1` (centres unmarked) [IN10987-056-P1] is “++ (++ means 200 nM-1000 nM)”; for `Cc1cc(C)n(-c2nc(OC3CCC(F)(F)CC3)cc(N3CCOCC3)n2)n1` [IN10991-021-P1, 4-(6-((4,4-difluorocyclohexyl)oxy)-2-(3,5-dimethyl-1H-pyrazol-1-yl)pyrimidin-4-yl)morpholine] it is “+ (+ means >1 uM)”; for `Cc1cc(C)n(-c2cc(N3CCOCC3)cc(NC3CCC(F)(F)CC3)n2)n1` [IN10991-044-P1, N-(4,4-difluorocyclohexyl)-6-(3,5-dimethyl-1H-pyrazol-1-yl)-4-morpholinopyridin-2-amine] it is “++ (++ means 200 nM-1000 nM)”.

Take `Cc1cc(C)n(-c2cc(NC3CCC(F)(F)CC3)cc(N3CCOCC3)n2)n1` [IN10991-065-P1, N-(4,4-difluorocyclohexyl)-2-(3,5-dimethyl-1H-pyrazol-1-yl)-6-morpholinopyridin-4-amine]: the “SC100 (μM)” value was “+ (+ means >1 uM)”. The entry for `Cc1cc(C)n(-c2cc(NC3CCC(F)(F)CC3)nc(N3CCOCC3)c2)n1` [IN10991-067-P1, N-(4,4-difluorocyclohexyl)-4-(3,5-dimethyl-1H-pyrazol-1-yl)-6-morpholinopyridin-2-amine] is “+ (+ means >1 uM)”; for `Cc1ccn(-c2cc(CN3CCOC3=O)cc(NC3CCC(F)(F)CC3)n2)n1` [IN10991-091-P1] it is “++ (++ means 200 nM-1000 nM)”; for `Fc1cnn(-c2nc(NC3CCC(F)(F)CC3)cc(N3CCOCC3)n2)c1` [IN11030-013-P1, N-(4,4-difluorocyclohexyl)-2-(4-fluoro-1H-pyrazol-1-yl)-6-morpholinopyrimidin-4-amine] it is “+ (+ means >1 uM)”. Turning to `FC1(F)CCC(Nc2cc(N3CCOCC3)nc(-c3ccc[nH]3)n2)CC1` [IN11030-023-P1, N-(4,4-difluorocyclohexyl)-6-morpholino-2-(1H-pyrrol-2-yl)pyrimidin-4-amine], the “SC100 (μM)” value is “+ (+ means >1 uM)”. The result for `Cc1csc(-c2nc(NC3CCC(F)(F)CC3)cc(N3CC(F)(F)OC(F)(F)C3)n2)n1` [IN11030-032-P1] reads “+++ (+++ means <200 nM)”. The entry for `Cc1cc(C)n(-c2nc(NC3CCC(F)(F)CC3)cc(N3CC(F)(F)OC(F)(F)C3)n2)n1` [IN11030-035-P1] is “++ (++ means 200 nM-1000 nM)”; for `Cc1ccn(-c2nc(NC3CCC(F)(F)CC3)cc(N3CC(F)(F)OC(F)(F)C3)n2)n1` [IN11030-044-P1] it is “++ (++ means 200 nM-1000 nM)”.

In the case of `CC(=O)c1cc(NC2CCC(F)(F)CC2)nc(-c2nc(C)cs2)n1` [IN11030-054-P1, 1-(6-((4,4-difluorocyclohexyl)amino)-2-(4-methylthiazol-2-yl)pyrimidin-4-yl) ethan-1-one], the “SC100 (μM)” value is listed as “+ (+ means >1 uM)”. Turning to `COc1cccc2c(NC3CCC(F)(F)CC3)nc(-c3nc(C)cs3)nc12` [IN11030-081-P1, N-(4,4-difluorocyclohexyl)-8-methoxy-2-(4-methylthiazol-2-yl) quinazolin-4-amine], the “SC100 (μM)” value is given as “++ (++ means 200 nM-1000 nM)”.

Regarding `Cc1csc(-c2nc(NC3CCC(F)(F)CC3)cc(C(C)(C)O)n2)n1` [IN11030-083-P1, 2-(6-((4,4-difluorocyclohexyl)amino)-2-(4-methylthiazol-2-yl)pyrimidin-4-yl) propan-2-ol], the “SC100 (μM)” value is on record as “++ (++ means 200 nM-1000 nM)”.

For the compound `Cc1ccn(-c2nc(NC3CCC(F)(F)CC3)cc(OCCC#N)n2)n1` [IN11030-095-P1], the “SC100 (μM)” value is “+ (+ means >1 uM)”. The result for `Cc1ccn(-c2cc(COC(=O)N(C)C)cc(NC3CCC(F)(F)CC3)n2)n1` [IN11039-006-P1] reads “+++ (+++ means <200 nM)”. The result for `COC(=O)NCCOc1cc(NC2CCC(F)(F)CC2)nc(-c2nc(C)cs2)n1` [IN11039-009-P1] reads “++ (++ means 200 nM-1000 nM)”; that for `COCCN(C)Cc1cc(NC2CCC(F)(F)CC2)nc(-n2ccc(C)n2)c1` [IN11039-017-P1], “++ (++ means 200 nM-1000 nM)”; that for `Cc1ccn(-c2cc(COC3CCCNC3)cc(NC3CCC(F)(F)CC3)n2)n1` (centres unmarked) [IN11039-019-P1, N-(4,4-difluorocyclohexyl)-6-(3-methyl-1H-pyrazol-1-yl)-4-((piperidin-3-yloxy)methyl)pyridin-2-amine], “+++ (+++ means <200 nM)”. The result for `Cc1ccn(-c2cc3ccccc3c(NC3CCC(F)(F)CC3)n2)n1` [IN11039-023-P1, N-(4,4-difluorocyclohexyl)-3-(3-methyl-1H-pyrazol-1-yl)isoquinolin-1-amine] reads “+ (+ means >1 uM)”; that for `CNCc1cc(NC2CCC(F)(F)CC2)nc(-n2ccc(C)n2)c1` [IN11039-026-P1], “++ (++ means 200 nM-1000 nM)”. On to `Cc1ccn(-c2cc3c(c(NC4CCC(F)(F)CC4)n2)CCCC3)n1` [IN11039-036-P1, N-(4,4-difluorocyclohexyl)-3-(3-methyl-1H-pyrazol-1-yl)-5,6,7,8-tetrahydro isoquinolin-1-amine], for which the “SC100 (μM)” value is listed as “+ (+ means >1 uM)”. Take `COc1nc(-c2nc(C)cs2)nc(NC2CCC(F)(F)CC2)c1F` [IN11039-058-P1, N-(4,4-difluorocyclohexyl)-5-fluoro-6-methoxy-2-(4-methylthiazol-2-yl)pyrimidin-4-amine]: the “SC100 (μM)” value was “++ (++ means 200 nM-1000 nM)”. The result for `Cc1ccn(-c2cc(COc3ncccc3C(C)O)cc(NC3CCC(F)(F)CC3)n2)n1` (centres unmarked) [IN11039-066-P1] reads “+++ (+++ means <200 nM)”; that for `Cc1ccn(-c2cc(COc3ncccc3C(C)(C)O)cc(NC3CCC(F)(F)CC3)n2)n1` [IN11039-069-P1], “+++ (+++ means <200 nM)”; that for `Cc1csc(-c2nc(NC3CCC(F)(F)CC3)c(O)c(=O)[nH]2)n1` [IN11039-094-P1, 6-((4,4-difluorocyclohexyl)amino)-2-(4-methylthiazol-2-yl) pyrimidine-4,5-diol], “+ (+ means >1 uM)”. The result for `COc1cc(NC2CCC(F)(F)CC2)nc(-n2ccc(C)n2)n1` [IN11053-005-P1] reads “+ (+ means >1 uM)”; that for `COCc1cc(NC2CCC(F)(F)CC2)nc(-n2ccc(C)n2)n1` [IN11053-007-P1, N-(4,4-difluorocyclohexyl)-6-(methoxymethyl)-2-(3-methyl-1H-pyrazol-1-yl)pyrimidin-4-amine], “+ (+ means >1 uM)”; that for `Cc1ccn(-c2nc(COc3ccc(C#N)cn3)cc(NC3CCC(F)(F)CC3)n2)n1` [IN11053-013-P1], “++ (++ means 200 nM-1000 nM)”. The entry for `Cc1ccn(-c2nc(NC3CCC(F)(F)CC3)cc(OC(C)C)n2)n1` [IN11053-021-P1] is “+ (+ means >1 uM)”; for `Cc1ccn(-c2nc(NC3CCC(F)(F)CC3)cc(OCc3ncco3)n2)n1` [IN11053-022-P1] it is “+ (+ means >1 uM)”. `Cc1ccn(-c2nc(NC3CCC(F)(F)CC3)cc(OCc3cocn3)n2)n1` [IN11053-024-P1]: the “SC100 (μM)” value is on record as “+ (+ means >1 uM)”.

As to `COC(=O)NCc1cc(NC2CCC(F)(F)CC2)nc(-n2ccc(C)n2)n1` [IN11053-033-P1, methyl ((6-((4,4-difluorocyclohexyl)amino)-2-(3-methyl-1H-pyrazol-1-yl)pyrimidin-4-yl)methyl) carbamate], the “SC100 (μM)” value is “+ (+ means >1 uM)”.

Turning to `Cc1ccn(-c2nc(COc3ccc(C(N)=O)nn3)cc(NC3CCC(F)(F)CC3)n2)n1` [IN11053-046-P1], the “SC100 (μM)” value is given as “+++ (+++ means <200 nM)”. On to `C=Cc1cc(NC2CCC(F)(F)CC2)nc(-n2ccc(C)n2)n1` [IN11053-052-P1], for which the “SC100 (μM)” value is “++ (++ means 200 nM-1000 nM)”. The result for `CC(=O)c1cc(NC2CCC(F)(F)CC2)nc(-n2ccc(C(F)(F)F)n2)n1` [IN11053-059-P1, 1-(6-((4,4-difluorocyclohexyl)amino)-2-(3-(trifluoromethyl)-1H-pyrazol-1-yl)pyrimidin-4-yl)ethan-1-one] reads “+ (+ means >1 uM)”; that for `OCc1cc(NC2CCC(F)(F)CC2)nc(-n2ccc(C(F)(F)F)n2)n1` [IN11053-060-P1, (6-((4,4-difluorocyclohexyl)amino)-2-(3-(trifluoromethyl)-1H-pyrazol-1-yl)pyrimidin-4-yl) methanol], “++ (++ means 200 nM-1000 nM)”; that for `CC(O)c1cc(NC2CCC(F)(F)CC2)nc(-n2ccc(C(F)(F)F)n2)n1` (centres unmarked) [IN11053-062-P1, 1-(6-((4,4-difluorocyclohexyl)amino)-2-(3-(trifluoromethyl)-1H-pyrazol-1-yl)pyrimidin-4-yl)ethan-1-ol], “+ (+ means >1 uM)”. The result for `COCc1cc(NC2CCC(F)(F)CC2)nc(-n2ccc(C(F)(F)F)n2)n1` [IN11053-071-P1, N-(4,4-difluorocyclohexyl)-6-(methoxymethyl)-2-(3-(trifluoromethyl)-1H-pyrazol-1-yl)pyrimidin-4-amine] reads “+ (+ means >1 uM)”.
